Among the data in ChEMBL document CHEMBL5678818, “Discovery of potent SOS1 inhibitors that block RAS activation via disruption of the RAS-SOS1 interaction” (Proc Natl Acad Sci U S A, 2019) are Activity values, retold here.

Experiment [1] concerns the target Activin receptor type-2B (Homo sapiens) (UniProt Q13705). Description: Inhibition of ACVR2B (unknown origin) assessed as residual activity at 1000 nM by KINOMEscan analysis relative to control.
In experiment [2] the target is Tyrosine-protein kinase BTK (Homo sapiens) (UniProt Q06187). The experiment in a line: Inhibition of BTK (unknown origin) assessed as residual activity at 1000 nM by KINOMEscan analysis relative to control.
For experiment [3], the target named is Calcium/calmodulin-dependent protein kinase type II subunit delta (Homo sapiens) (UniProt Q13557). The experiment in a line: Inhibition of CAMK2D (unknown origin) assessed as residual activity at 1000 nM by KINOMEscan analysis relative to control.
Experiment [4] deals with Calcium/calmodulin-dependent protein kinase kinase 2 (Homo sapiens) (UniProt Q96RR4). Description: Inhibition of CAMKK2 (unknown origin) assessed as residual activity at 1000 nM by KINOMEscan analysis relative to control.
For experiment [5], the target named is Casein kinase II subunit alpha (Homo sapiens) (UniProt P68400). Description: Inhibition of CSNK2A1 (unknown origin) assessed as residual activity at 1000 nM by KINOMEscan analysis relative to control.
Experiment [6] has as its target Death-associated protein kinase 2 (Homo sapiens) (UniProt Q9UIK4). The experiment in a line: Inhibition of DAPK2 (unknown origin) assessed as residual activity at 1000 nM by KINOMEscan analysis relative to control.
Experiment [7] concerns Epidermal growth factor receptor (Homo sapiens), P00533 [G719C]. The experiment in a line: Inhibition of EGFR G719C mutant (unknown origin) assessed as residual activity at 1000 nM by KINOMEscan analysis relative to control.
The test system of experiment [8] is Receptor-type tyrosine-protein kinase FLT3 (Homo sapiens), P36888 [K663Q]. The experiment in a line: Inhibition of FLT3 K663Q mutant (unknown origin) assessed as residual activity at 1000 nM by KINOMEscan analysis relative to control.
The target in experiment [9] is Tyrosine-protein kinase FRK (Homo sapiens) (UniProt P42685). The experiment in a line: Inhibition of FRK (unknown origin) assessed as residual activity at 1000 nM by KINOMEscan analysis relative to control.
The target of experiment [10] is T1, Serine/threonine-protein kinase haspin (Homo sapiens) (UniProt Q8TF76).
T1 sequence (whole entry): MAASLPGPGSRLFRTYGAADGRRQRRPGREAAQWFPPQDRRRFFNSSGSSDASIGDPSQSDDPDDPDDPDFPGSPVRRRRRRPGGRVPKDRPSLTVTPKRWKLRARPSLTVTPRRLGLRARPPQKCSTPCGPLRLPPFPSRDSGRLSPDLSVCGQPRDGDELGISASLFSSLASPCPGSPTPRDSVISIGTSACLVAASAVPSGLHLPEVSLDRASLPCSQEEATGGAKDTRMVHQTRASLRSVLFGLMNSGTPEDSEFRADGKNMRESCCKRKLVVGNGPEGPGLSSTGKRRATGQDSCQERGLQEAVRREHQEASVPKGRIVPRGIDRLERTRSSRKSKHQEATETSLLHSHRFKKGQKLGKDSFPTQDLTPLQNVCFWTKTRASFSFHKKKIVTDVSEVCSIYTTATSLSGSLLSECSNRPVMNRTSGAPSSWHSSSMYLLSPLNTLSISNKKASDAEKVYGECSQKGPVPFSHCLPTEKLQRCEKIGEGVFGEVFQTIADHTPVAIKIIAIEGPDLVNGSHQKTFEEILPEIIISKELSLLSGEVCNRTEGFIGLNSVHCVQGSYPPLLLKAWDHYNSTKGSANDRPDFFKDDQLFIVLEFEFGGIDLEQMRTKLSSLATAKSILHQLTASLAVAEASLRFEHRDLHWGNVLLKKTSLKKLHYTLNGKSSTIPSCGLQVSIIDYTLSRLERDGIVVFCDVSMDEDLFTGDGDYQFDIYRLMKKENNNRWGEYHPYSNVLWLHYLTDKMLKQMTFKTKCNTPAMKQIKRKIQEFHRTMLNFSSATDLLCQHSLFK
The experiment in a line: Inhibition of HASPIN (unknown origin) assessed as residual activity at 1000 nM by KINOMEscan analysis relative to control.

Experiment [11] concerns the target Mitogen-activated protein kinase kinase kinase kinase 1 (Homo sapiens) (UniProt Q92918). The experiment in a line: Inhibition of HPK1 (unknown origin) assessed as residual activity at 1000 nM by KINOMEscan analysis relative to control.
For experiment [12], the species on record is Homo sapiens. Description: Inhibition of JNK1 (unknown origin) assessed as residual activity at 1000 nM by KINOMEscan analysis relative to control.
Experiment [13] has as its target MAP kinase-interacting serine/threonine-protein kinase 1 (Homo sapiens) (UniProt Q9BUB5). The experiment in a line: Inhibition of MKNK1 (unknown origin) assessed as residual activity at 1000 nM by KINOMEscan analysis relative to control.
For experiment [14], the target named is Serine/threonine-protein kinase PLK2 (Homo sapiens) (UniProt Q9NYY3). Description: Inhibition of PLK2 (unknown origin) assessed as residual activity at 1000 nM by KINOMEscan analysis relative to control.
Experiment [15] addresses Ribosomal protein S6 kinase alpha-2 (Homo sapiens) (UniProt Q15349). Description: Inhibition of N-terminal RSK3 […] domain 1 (unknown origin) assessed as residual activity at 1000 nM by KINOMEscan analysis relative to control.
In experiment [16] the target is T2, Serine/threonine-protein kinase Sgk3 (Homo sapiens) (UniProt Q96BR1).
T2 sequence (whole entry): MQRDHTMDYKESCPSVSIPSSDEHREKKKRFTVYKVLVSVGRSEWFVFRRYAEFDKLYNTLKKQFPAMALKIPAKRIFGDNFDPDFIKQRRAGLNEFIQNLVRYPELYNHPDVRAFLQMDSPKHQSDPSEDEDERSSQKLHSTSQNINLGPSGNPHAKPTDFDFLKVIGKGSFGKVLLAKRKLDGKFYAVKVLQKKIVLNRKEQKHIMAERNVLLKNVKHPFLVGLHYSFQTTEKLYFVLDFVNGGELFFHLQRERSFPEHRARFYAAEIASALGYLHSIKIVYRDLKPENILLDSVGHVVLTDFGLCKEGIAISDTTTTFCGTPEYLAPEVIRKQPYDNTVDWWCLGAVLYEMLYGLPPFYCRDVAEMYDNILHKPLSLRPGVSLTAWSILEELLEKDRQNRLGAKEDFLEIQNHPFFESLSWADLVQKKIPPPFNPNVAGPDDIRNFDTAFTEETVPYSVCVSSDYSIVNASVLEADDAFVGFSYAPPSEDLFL
Description: Inhibition of SGK3 (unknown origin) assessed as residual activity at 1000 nM by KINOMEscan analysis relative to control.

In experiment [17] the target is Activated CDC42 kinase 1 (Homo sapiens) (UniProt Q07912). Description: Inhibition of TNK2 (unknown origin) assessed as residual activity at 1000 nM by KINOMEscan analysis relative to control.
Sequence of Activated CDC42 kinase 1 (Homo sapiens) (Q07912 whole entry, looked up): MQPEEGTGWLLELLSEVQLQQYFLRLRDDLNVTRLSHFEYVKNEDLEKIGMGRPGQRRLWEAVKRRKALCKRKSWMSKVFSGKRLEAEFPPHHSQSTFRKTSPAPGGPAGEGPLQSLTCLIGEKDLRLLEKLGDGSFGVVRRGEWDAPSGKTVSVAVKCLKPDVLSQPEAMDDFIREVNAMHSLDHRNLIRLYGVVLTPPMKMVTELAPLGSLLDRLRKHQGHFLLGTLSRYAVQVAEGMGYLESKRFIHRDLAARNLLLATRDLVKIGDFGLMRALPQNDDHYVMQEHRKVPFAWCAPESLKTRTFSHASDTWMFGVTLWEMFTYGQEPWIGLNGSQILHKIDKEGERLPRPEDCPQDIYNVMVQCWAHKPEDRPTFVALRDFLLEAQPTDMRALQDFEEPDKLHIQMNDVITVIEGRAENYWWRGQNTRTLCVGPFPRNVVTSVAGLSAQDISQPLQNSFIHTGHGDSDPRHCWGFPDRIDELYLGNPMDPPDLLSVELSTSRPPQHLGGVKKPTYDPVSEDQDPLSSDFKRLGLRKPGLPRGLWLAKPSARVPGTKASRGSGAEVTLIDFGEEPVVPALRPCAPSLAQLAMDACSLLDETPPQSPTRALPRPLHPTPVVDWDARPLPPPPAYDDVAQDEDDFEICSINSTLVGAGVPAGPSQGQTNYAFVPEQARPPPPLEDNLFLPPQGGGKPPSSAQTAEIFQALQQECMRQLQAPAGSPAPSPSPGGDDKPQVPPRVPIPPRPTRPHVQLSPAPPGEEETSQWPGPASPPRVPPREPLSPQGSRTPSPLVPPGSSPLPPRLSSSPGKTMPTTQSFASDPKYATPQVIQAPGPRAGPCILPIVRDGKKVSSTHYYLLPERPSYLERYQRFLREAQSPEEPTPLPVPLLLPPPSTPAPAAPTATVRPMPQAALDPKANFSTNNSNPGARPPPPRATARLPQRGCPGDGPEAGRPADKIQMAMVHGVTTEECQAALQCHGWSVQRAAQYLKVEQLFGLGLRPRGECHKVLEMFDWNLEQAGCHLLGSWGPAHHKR

Sequence of MAP kinase-interacting serine/threonine-protein kinase 1 (Homo sapiens) (Q9BUB5 whole entry, looked up): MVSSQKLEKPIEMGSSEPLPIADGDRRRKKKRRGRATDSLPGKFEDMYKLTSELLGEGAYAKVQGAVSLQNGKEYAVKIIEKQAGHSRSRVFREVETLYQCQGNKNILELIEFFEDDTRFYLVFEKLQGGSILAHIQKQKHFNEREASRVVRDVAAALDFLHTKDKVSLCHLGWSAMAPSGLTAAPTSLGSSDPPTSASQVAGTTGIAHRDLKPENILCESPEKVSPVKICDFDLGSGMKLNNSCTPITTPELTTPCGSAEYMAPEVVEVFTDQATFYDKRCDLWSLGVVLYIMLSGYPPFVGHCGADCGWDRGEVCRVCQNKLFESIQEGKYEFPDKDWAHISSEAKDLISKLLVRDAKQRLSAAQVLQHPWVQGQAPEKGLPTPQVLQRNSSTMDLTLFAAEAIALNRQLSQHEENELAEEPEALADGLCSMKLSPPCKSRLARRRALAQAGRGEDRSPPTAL
Sequence of Serine/threonine-protein kinase PLK2 (Homo sapiens) (Q9NYY3 whole entry, looked up): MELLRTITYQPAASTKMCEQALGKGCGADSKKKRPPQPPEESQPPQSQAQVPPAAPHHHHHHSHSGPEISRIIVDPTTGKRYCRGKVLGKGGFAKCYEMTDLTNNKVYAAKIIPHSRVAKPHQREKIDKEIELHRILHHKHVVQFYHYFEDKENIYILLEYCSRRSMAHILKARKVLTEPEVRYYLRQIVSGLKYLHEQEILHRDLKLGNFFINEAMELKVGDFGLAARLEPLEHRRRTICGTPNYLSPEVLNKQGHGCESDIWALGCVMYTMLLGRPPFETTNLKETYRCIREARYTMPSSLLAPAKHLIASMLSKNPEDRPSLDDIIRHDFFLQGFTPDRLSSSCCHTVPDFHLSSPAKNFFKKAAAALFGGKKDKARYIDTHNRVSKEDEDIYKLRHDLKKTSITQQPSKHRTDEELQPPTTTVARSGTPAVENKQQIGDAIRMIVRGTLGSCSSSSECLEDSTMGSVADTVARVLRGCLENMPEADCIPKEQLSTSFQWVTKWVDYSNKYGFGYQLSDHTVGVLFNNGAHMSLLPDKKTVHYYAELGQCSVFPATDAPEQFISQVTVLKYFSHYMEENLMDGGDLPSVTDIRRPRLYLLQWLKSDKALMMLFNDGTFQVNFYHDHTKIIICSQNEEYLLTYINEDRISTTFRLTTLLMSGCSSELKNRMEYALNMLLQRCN
Sequence of Casein kinase II subunit alpha (Homo sapiens) (P68400 whole entry, looked up): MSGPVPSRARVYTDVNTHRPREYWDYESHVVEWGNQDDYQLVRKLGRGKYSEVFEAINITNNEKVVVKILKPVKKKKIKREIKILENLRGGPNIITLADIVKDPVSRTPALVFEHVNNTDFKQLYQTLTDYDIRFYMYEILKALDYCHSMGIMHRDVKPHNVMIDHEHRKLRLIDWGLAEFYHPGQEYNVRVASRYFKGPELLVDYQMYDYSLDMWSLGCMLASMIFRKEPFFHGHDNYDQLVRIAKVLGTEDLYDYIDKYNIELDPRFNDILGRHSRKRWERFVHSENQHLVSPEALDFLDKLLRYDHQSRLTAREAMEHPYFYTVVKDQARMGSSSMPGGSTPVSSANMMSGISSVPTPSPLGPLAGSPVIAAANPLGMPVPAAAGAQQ
Sequence of Tyrosine-protein kinase BTK (Homo sapiens) (Q06187 whole entry): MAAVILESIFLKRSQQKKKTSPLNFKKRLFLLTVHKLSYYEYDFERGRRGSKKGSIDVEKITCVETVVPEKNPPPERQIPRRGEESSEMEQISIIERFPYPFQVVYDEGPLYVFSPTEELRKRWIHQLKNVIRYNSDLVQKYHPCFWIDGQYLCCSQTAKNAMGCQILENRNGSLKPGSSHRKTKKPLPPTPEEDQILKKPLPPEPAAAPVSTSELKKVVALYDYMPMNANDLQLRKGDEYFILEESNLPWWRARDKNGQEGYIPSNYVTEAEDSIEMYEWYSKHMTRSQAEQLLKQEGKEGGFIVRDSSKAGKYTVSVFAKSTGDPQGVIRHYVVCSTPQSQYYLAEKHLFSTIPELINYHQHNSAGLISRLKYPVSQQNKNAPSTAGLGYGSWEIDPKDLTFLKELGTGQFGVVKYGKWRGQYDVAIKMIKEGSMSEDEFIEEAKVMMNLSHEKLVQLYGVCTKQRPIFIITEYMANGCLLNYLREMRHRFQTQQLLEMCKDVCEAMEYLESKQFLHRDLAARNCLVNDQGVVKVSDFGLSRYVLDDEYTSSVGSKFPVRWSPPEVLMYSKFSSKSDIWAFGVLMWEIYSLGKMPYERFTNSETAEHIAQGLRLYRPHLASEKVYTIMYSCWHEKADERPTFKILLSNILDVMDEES
Sequence of Death-associated protein kinase 2 (Homo sapiens) (Q9UIK4 whole entry, looked up): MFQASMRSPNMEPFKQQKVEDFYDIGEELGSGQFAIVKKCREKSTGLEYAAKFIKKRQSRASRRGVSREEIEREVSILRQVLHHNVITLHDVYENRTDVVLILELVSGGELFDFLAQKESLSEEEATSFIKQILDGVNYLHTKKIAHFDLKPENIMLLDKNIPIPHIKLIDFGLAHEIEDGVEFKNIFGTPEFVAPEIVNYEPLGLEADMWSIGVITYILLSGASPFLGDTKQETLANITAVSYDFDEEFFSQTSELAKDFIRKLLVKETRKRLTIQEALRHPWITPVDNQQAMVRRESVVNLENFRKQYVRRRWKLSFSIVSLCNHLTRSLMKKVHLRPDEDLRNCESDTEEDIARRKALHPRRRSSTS
Sequence of Activin receptor type-2B (Homo sapiens) (Q13705 whole entry): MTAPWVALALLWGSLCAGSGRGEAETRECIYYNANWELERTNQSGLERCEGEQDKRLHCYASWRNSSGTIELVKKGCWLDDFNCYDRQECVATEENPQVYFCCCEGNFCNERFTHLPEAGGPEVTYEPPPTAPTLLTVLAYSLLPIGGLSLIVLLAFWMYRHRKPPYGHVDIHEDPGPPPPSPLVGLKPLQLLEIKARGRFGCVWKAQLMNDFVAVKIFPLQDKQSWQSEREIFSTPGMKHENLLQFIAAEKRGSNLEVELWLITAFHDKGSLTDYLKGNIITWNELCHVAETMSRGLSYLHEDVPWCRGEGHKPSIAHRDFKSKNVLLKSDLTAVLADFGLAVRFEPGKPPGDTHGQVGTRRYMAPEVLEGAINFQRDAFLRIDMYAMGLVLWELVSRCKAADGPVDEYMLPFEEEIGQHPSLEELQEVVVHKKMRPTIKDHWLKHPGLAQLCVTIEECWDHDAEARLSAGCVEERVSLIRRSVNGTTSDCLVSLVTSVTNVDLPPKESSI
Sequence of Calcium/calmodulin-dependent protein kinase type II subunit delta (Homo sapiens) (Q13557 whole entry): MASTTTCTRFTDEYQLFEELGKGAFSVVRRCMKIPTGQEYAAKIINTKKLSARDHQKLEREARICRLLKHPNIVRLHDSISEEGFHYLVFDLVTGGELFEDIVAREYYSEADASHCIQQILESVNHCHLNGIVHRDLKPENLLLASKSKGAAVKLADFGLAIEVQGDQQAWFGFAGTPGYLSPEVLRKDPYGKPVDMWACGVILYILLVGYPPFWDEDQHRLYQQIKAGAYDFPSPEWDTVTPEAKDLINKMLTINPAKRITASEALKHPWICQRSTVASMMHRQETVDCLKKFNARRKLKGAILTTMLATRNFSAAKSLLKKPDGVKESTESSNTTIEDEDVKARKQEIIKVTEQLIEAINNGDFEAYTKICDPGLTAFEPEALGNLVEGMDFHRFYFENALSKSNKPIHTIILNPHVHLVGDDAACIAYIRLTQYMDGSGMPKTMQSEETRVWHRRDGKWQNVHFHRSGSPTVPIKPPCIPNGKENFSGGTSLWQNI

For `COc1cc2nc(C)nc(N[C@H](C)c3cccc(-c4cn[nH]c4)c3)c2cc1OC`, the Activity came out at 91% in experiment [1]; 100% in experiment [2]; 100% in [3]; 65% in experiment [4]; 70% in experiment [5]; 73% in [6]. The Activity in experiment [7] turned out to be 77%; in [8], 90%; in [9] it was 76%; in [10] it was 81%; in experiment [11] it was 97%; in experiment [12], 64%. Further, the Activity amounted to 100% in [13]; 99% in experiment [14]; 94% in experiment [15]; 90% in [16]; 70% in experiment [17].

For `COc1cc2ncnc(N[C@H](C)c3cccc4ccccc34)c2cc1OC`, the Activity in [1] was found to be 100%; in experiment [2], 97%; in experiment [3] it was 100%; in experiment [4], 92%; in experiment [5] it was 100%; in experiment [6], 99%. Also, the Activity in experiment [7] worked out at 1.6%; in experiment [8], 96%; in [9], 94%; in experiment [10] it was 99%; in experiment [11], 100%; in experiment [12], 100%. Besides, the Activity in [13] is 56%; in experiment [14], 99%; in [15] it was 100%; in [16], 100%; in [17], 100%.
